{"source": "patent US20250019361A1", "about": "“(3-QUINOLYL)-QUINAZOLINE” (BASF SE, priority 2021, published 2025)", "test_system": "Septoria tritici", "experiment": "Microtest: activity against leaf blotch on wheat caused by Septoria tritici", "type": "cell-based", "details": "8 ppm", "experimental": "The active compounds were formulated separately as a stock solution having a concentration of 10000 ppm in dimethyl sulfoxide.\nThe stock solutions were mixed according to the ratio, pipetted onto a micro titer plate (MTP) and diluted with water to the stated concentrations.\nA spore suspension of Septoria tritici in an aqueous biomalt or yeast-bactopeptone-glycerine or DOB solution was then added.\nThe measured parameters were compared to the growth of the active compound-free control variant (100%) and the fungus-free blank value to determine the relative growth in % of the pathogens in the respective active compounds."}
{"smiles": "N#CN1c2ccccc2C(c2cnc3c(F)cccc3c2)=NC12CCCC2", "note": "[Ex-7]", "values": [{"measurement": "growth of the pathogen (relative growth in %, control 100%)", "result": 19, "unit": "%"}]}
{"smiles": "CC1(C)N=C(c2cnc3c(F)cccc3c2)c2ccccc2N1C#N", "note": "[Ex-8]", "values": [{"measurement": "growth of the pathogen (relative growth in %, control 100%)", "result": 19, "unit": "%"}]}
{"smiles": "CCCCN1c2c(F)cccc2C(c2cnc3c(F)cccc3c2)=NC1(C)C", "note": "[Ex-9]", "values": [{"measurement": "growth of the pathogen (relative growth in %, control 100%)", "result": 19, "unit": "%"}]}
{"smiles": "CCN1c2c(F)cccc2C(c2cnc3c(F)cccc3c2)=NC1(C)C", "note": "[Ex-10]", "values": [{"measurement": "growth of the pathogen (relative growth in %, control 100%)", "result": 19, "unit": "%"}]}
{"smiles": "CCCN1c2c(F)cccc2C(c2cnc3c(F)cccc3c2)=NC1(C)C", "note": "[Ex-11]", "values": [{"measurement": "growth of the pathogen (relative growth in %, control 100%)", "result": 19, "unit": "%"}]}
